# pEC50: −log10 of the molar value.
# Biological target: Estrogen receptor beta (Homo sapiens, UniProt Q92731)
# Sequence (Q92731 whole entry): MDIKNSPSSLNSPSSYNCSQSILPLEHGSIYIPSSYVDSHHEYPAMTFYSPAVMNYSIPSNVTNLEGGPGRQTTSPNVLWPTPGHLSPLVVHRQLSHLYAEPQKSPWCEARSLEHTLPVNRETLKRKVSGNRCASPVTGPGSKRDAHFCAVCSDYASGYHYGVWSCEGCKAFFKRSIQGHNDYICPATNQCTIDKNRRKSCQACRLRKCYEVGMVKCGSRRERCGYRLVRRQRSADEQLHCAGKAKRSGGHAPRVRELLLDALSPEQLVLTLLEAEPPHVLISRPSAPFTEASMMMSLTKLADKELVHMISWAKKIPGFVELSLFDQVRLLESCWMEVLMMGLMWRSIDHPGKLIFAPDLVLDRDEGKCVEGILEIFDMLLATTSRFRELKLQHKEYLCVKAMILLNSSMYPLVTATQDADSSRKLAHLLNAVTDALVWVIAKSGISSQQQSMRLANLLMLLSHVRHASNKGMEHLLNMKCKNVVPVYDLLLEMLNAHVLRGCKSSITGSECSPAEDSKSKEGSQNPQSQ
# Description: Transcriptional potency (EC50) at Human estrogen receptor Beta
row,pEC50,SMILES
1,7.68,N#CC(C#N)(Cc1ccc(O)cc1)c1ccc(O)cc1
2,8.70,Oc1ccc(CC(c2ccc(O)cc2)C(F)(F)F)cc1 (stereo not given)
3,6.80,O=C(C(Cc1ccc(O)cc1)c1ccc(O)cc1)C(F)(F)F (stereo not given)
4,8.10,CC(C#N)(Cc1ccc(O)cc1)c1ccc(O)cc1 (stereo not given)
5,7.52,N#CC[C@H](Cc1ccc(O)cc1)c1ccc(O)cc1
6,9.85,C[C@H](c1ccc(O)cc1)[C@@H](C#N)c1ccc(O)cc1
7,8.77,Cc1cc(O)ccc1C(C#N)Cc1ccc(O)cc1 (stereo not given)
8,7.46,CC(=O)C(Cc1ccc(O)cc1)c1ccc(O)cc1 (stereo not given)
9,9.43,Cc1cc(O)ccc1CC(C#N)c1ccc(O)cc1 (stereo not given)
10,9.82,CC[C@H](c1ccc(O)cc1)[C@@H](C#N)c1ccc(O)cc1
11,8.68,CC#CC(Cc1ccc(O)cc1)c1ccc(O)cc1 (stereo not given)
12,6.96,N#CC(c1ccc(O)cc1)C(C#N)c1cccc(O)c1 (stereo not given)
13,6.66,N#C/C(=C/c1ccc(O)cc1)c1ccc(O)cc1
14,6.85,N#C/C(=C\c1ccc(O)cc1)c1ccc(O)cc1
15,8.85,C#CC(Cc1ccc(O)cc1)c1ccc(O)cc1 (stereo not given)
16,8.31,COC(=O)C(Cc1ccc(O)cc1)c1ccc(O)cc1 (stereo not given)
17,7.82,Oc1ccc(CC(c2ccc(O)cc2)C(F)(F)C(F)(F)F)cc1 (stereo not given)
18,8.43,C#CC(c1ccc(O)cc1)C(C#C)c1ccc(O)cc1 (racemic)
19,9.38,N#CC(c1ccc(O)cc1)C(C#N)c1ccc(O)cc1 (stereo in doubt)
20,9.39,N#CC(c1ccc(O)cc1)C(C#N)c1ccc(O)cc1 (stereo in doubt; 31a(dl))
